Results on 1 compound are retold here after US11564913B2, “Compositions and methods for treating cancer” (Children's Hospital Medical Center, priority 2019, dated 2023).

Experiment [1] relates to active GTP-bound Ras in ST8814 cells. Kind of experiment: Active Ras pull-down with GST-RafRBD. The class given is cell-based. The note with it: 2 μM. Here is the method:
FIG. 4. IODVA1 inhibits proliferation of cancer model cells. (A) IODVA1 is a potent cell proliferation inhibitor. MCF10A, MCF7, MDA-MB-231, and T47D cells were grown in the presence of the indicated IODVA1 concentrations and counted for 4 or up to 7 days. Each dot and bar is the mean±stdev respectively, of 3 independent experiments, with 2 technical replicates in each experiment. (B) Number of colonies made by MCF7, T47D, and MDA-MB-231 cells at the indicated IODVA1 concentrations. Results shown are mean±stdev of 2 independent experiments with 4 technical replicates each. (C) IODVA1 deactivates Ras at late incubation times. […] Quantification summary of 2 independent experiments is presented in the graph. n.s.—not significant, *-p<0.05, **-p<0.01, ****-p<0.0001. (D) IODVA1 inhibits proliferation of ST8814 cells. ST8814 cells were grown in the presence of the indicated IODVA1 concentrations and counted daily for 4 days. Each dot and bar is the mean and standard deviation respectively, of 3 independent experiments.
To check if IODVA1 inhibits Ras activation in cells, applicants determined the levels of active-GTP-bound-Ras in ST88-14 cells treated with IODVA1 (2 μM) or vehicle control at various time points. GST-RafRBD bound glutathione-beads were incubated with ST8814 cell lysates, thoroughly washed, and the protein complex separated on SDS-PAGE. Levels of GTP-bound pan-RAS proteins bound to RafRBD were determined by immunoblotting.
Levels of active Ras, Rac, Cdc42 and RhoA were determined using the Active Ras Pull-Down and Detection Kit, Active Rac Pull-Down and Detection Kit (Thermo Scientific) and RhoA/Rac1/Cdc4 Pull-down Activation Assay Combo Biochem Kit (Cytoskeleton). Cells were cultured and treated as indicated and lysed in buffer provided by the manufacturer. […] Proteins were resolved by SDS-PAGE, transferred to nitrocellulose and the level of active GTPase relative to input lysate were determined by immunoblotting analysis using the anti-Ras, anti-Rac, anti-Cdc42, or anti-RhoA antibody supplied by the manufacturer.

The subject of experiment [2] is pVav3 in MDA-MB-231 xenograft tumors. The experiment can be described thus: Immunohistochemistry of pVav3 in xenograft tumors. Set-up: species or system mice. The conditions noted are these: mouse, in vivo. The method, then:
FIG. 16: IODVA1 decreases levels of pVav3 in in vitro and in vivo models of triple negative breast cancer. (A) Immunoblot and quantification of Vav3 protein in lysates of MDA-MB-231 triple negative breast cancer cells stably expressing scrambled or Vav3-targeting shRNAs. Viability of the MDA-MB-231 cells stably expressing shVav3 in the presence of IODVA1 (0-1 μM). Cells were grown in the presence of IODVA1 and counted by trypan blue exclusion at the indicated time points. (B) MDA-MB-231 cells were incubated with IODVA1 (3 μM) for 15 min and the levels of phosphorylated Vav3 (pY173) were assessed by immunoblotting. (C) Immunohistochemical staining of phosphorylated Vav3 in tissue derived from MDA-MB-231 xenografts treated with vehicle control or IODVA1.
To test if IODVA1 inhibits Vav3 in vivo, we took advantage of the MDA-MB-231 xenograft tumors we generated (FIG. 8A) and stained them by immunohistochemistry for pVav3.
Embedded tissues were cut into 4 μm sections then immunohistochemically stained using the Mouse on Mouse kit (MoM kit, Vector Laboratories). Tissue sections were subjected to sodium citrate antigen retrieval, pretreated with 0.3% hydrogen peroxide, blocked according to kit directions, and incubated with an antibody to phosphorylated Vav3 (1:200 dilution, Abcam) and HRP-conjugated anti-rabbit secondary (Vector Laboratories). […]

For experiment [3], the system named is Rac-dependent and -independent effectors in EGFP+/B220+ LDBM cells. The experiment can be described thus: Pharmacodynamic phospho-flow analysis of leukemic progenitor cells from treated p210(T315I) mice. The class given is in vivo. The conditions noted are these: two-week treated mice. The text has this:
LDBM cells were transduced with TKI-resistant p210-BCR-ABL1(T315I) (gatekeeper mutant) and transplanted into recipient mice as in FIG. 10. Pumps were surgically introduced into mice (N=5 per treatment group) and treatment lasted 28 days or two rounds of pumps. After 28 days, mice were monitored without any additional treatment. (A) Kaplan-Meier survival plot of imatinib-resistant mice. […] (B) Flow cytometric analysis of leukemic progenitor (EGFP^+) B-cells in peripheral blood (PB) at the indicated week. Only IODVA1-treated mice remained alive for analysis at weeks 5, 7, and 10.
To assess signaling pathways affected by IODVA1. EGFP^+/B220^+ LDBM cells were isolated from two-week treated p210(T315I) mice, stained with phospho-antibodies against the pro-proliferative Rac-dependent effectors JNK, PAK, 4EBP, and S6 and the Rac-independent effectors ERK1/2, STAT3, STAT5, p38, and AKT, and analyzed by flow cytometry. […] Phosphorylation levels of p38, ERK, STAT3, STAT5, and AKT were not affected by IODVA1. […] Taken together, IODVA1 not only overcomes TKI-resistance but also eliminates TKI-resistant leukemic stem/progenitor cells likely by acting on imatinib-independent growth signaling pathways that involve Rac effectors.

With `OC1(c2ccccn2)N=C(Nc2nc3ccccc3[nH]2)N=C1c1ccccn1` (stereo not drawn) [IODVA1, (Z)-2-((1H-benzo[d]imidazol-2-yl)imino)-4,5-di(pyridin-2-yl)-2,5-dihydro-1H-imidazol-5-ol], the “levels of active Ras versus vehicle control” value is on record as “similar” in experiment [1] (24 h) and “decrease in active Ras levels is seen” in experiment [1] (48 h). Moreover, the “decrease in active Ras levels” value in experiment [1] (72 h) is “very noticeable”. Also, the “pVav3 staining of tumor sections versus vehicle control” value in experiment [2] is given as “significant decrease”. Also, in experiment [3], the “phosphorylation levels of p38, ERK, STAT3, STAT5, and AKT” value is reported as “not affected”. Moreover, in experiment [3] (p=0.0012), the “decrease in pS6” value is 17.8%. For the same compound, in experiment [3] (p=0.0016), the “decrease in pPAK” value was determined as 56%. Moreover, the “decrease in pJNK” value in experiment [3] (p=0.0029) is given as 55%. Moreover, the “decrease in p4EBP” value in experiment [3] (p=0.037) came to 20.3%.
